Measurements as given in patent US4360595A, “Fermentation process for producing anandimycin” (Bristol-Myers Company, priority 1981, dated 1982).
≈ marks a conversion by molar mass, not a printed value.

How the values were obtained:
P-388 leukemia = assay: transplantable mouse tumor P-388 leukemia; format: in vivo, mouse (CDF1 female mice); settings: for MST: control 9.0 days; for Effect MST % T/C: ≥ 125 significant
Description: Anandimycin was also tested against the transplantable mouse tumor P-388 leukemia. The methodology used generally followed the protocols of the National Cancer Institute (Cancer Chemotherapy Rep., Part 3, 3, 1-103 (1972). The essential experimental details are given at the bottom of the following table. Two different dose regimens are tested: single dose on day 1 and three doses given on days 1, 5 and 9. The optimal dose was 64 mg/kg. single dose.
Tumor inoculum: 10^6 ascites cells implanted
Host: CDF1 .female. mice
Evaluation: MST = median survival
Effect: % T/C = (MST treated/MST control) ×
Criteria: % T/C ≥ 125 considered significant antitumor
Tox: […] 4/6 mice alive on day 5
AWC = average weight gain (treatedcontrol) in grams (on day 4)

Str. pneumoniae 9585 = assay: in vitro MIC, standard tube dilution procedure; format: cell-based; settings: Streptococcus pneumoniae, 9585, read-out: Minimum Inhibitory Concentration
Description: (§1) The in vitro minimum inhibitory concentrations (MIC) of anandimycin were determined against a variety of microorganisms using the standard tube dilution procedure.

Pr. vulgaris 21559 = assay: in vitro MIC, standard tube dilution procedure; format: cell-based; settings: Proteus vulgaris, 21559, read-out: Minimum Inhibitory Concentration
Description: as §1

Staph. aureus 9587 = assay: in vitro MIC, standard tube dilution procedure; format: cell-based; settings: Staphylococcus aureus, 9587, read-out: Minimum Inhibitory Concentration
Description: as §1

K. pneumoniae 15130 = assay: in vitro MIC, standard tube dilution procedure; format: cell-based; settings: Klebsiella pneumoniae, 15130, read-out: Minimum Inhibitory Concentration
Description: as §1

Pr. mirabilis 9900 = assay: in vitro MIC, standard tube dilution procedure; format: cell-based; settings: Proteus mirabilis, 9900, read-out: Minimum Inhibitory Concentration
Description: as §1

E. coli 20341-1 = assay: in vitro MIC, standard tube dilution procedure; format: cell-based; settings: Escherichia coli, 203411, read-out: Minimum Inhibitory Concentration
Description: as §1

Ent. cloacae 9659 = assay: in vitro MIC, standard tube dilution procedure; format: cell-based; settings: Enterobacter cloacae, 9659, read-out: Minimum Inhibitory Concentration
Description: as §1

Ps. aeruginosa 9843A = assay: in vitro MIC, standard tube dilution procedure; format: cell-based; settings: Pseudomonas aeruginosa, 9843A, read-out: Minimum Inhibitory Concentration
Description: as §1

[1] = test system: Staph. aureus (penicillin-resistant) 9606; assay: in vitro MIC, standard tube dilution procedure; format: cell-based; settings: Staphylococcus aureus, read-out: Minimum Inhibitory Concentration
Description: as §1

Str. faecalis 20,588 = assay: in vitro MIC, standard tube dilution procedure; format: cell-based; settings: Enterococcus faecalis, read-out: Minimum Inhibitory Concentration
Description: as §1

Str. pyogenes 9604 = assay: in vitro MIC, standard tube dilution procedure; format: cell-based; settings: Streptococcus pyogenes, 9604, read-out: Minimum Inhibitory Concentration
Description: as §1

Ser. marcescens 20019 = assay: in vitro MIC, standard tube dilution procedure; format: cell-based; settings: Serratia marcescens, 20019, read-out: Minimum Inhibitory Concentration
Description: as §1

E. coli 15119 = assay: in vitro MIC, standard tube dilution procedure; format: cell-based; settings: Escherichia coli, 15119, read-out: Minimum Inhibitory Concentration
Description: as §1

[2] = solubility in organic solvents (trituration, chromatography); format: physicochemical
From the text: The solids obtained from extraction of the whole broth are next washed with diethyl ether to remove any lard oils and antifoams used in the fermentation. […] To remedy this problem a simple organic solvent trituration scheme was developed which effects a gross separation of the yellow pigments and another class of antitumor agents produced by strain C-22,437 (rachelmycin) from anandimycin on the basis of differential solubility. […] The first step involves trituration of the extraction solids with acetone. The resulting filtrate contains another antitumor substance which is active in the lysogenic bacteria induction assay and the P388 mouse tumor system (rachelmycin). The insoluble solid from the acetone trituration contains the yellow pigments along with a complex of anandimycin and another similar compound. The second phase of the process involves trituration with a ternary organic solvent system 40:30:30(^v/v) chloroform:methanol:tetrahydrofuran. The soluble fraction contains the yellow pigments. […] Substantially pure anandimycin is separated from the enriched mixture using high pressure liquid chromatography on silica gel as described in more detail below.
The analytical solvent system routinely used is hexane:ethyl acetate:isopropanol (30:70:3^v /v) along with 0.1 to 0.4 part water depending on the relative activity state of the silica gel surface in the column being used. If tailing effects are observed, then typically one increases the water content of the solvent system within the 0.1-0.4 part range to improve peak symmetry, thereby permitting a more quantitative analysis.
The preparative solvent system is ethyl acetate:isopropanol:water (87:13:0.5^v /v). […] A shave-recycle method involves increasing the effective silica gel column length through the employment of continuous multiple pass chromatography of the anandimycin-component II band. […] Initial chromatography gave anandimycin enriched to 70-85% purity. Accumulated solids are rechromatographed to yield material of >90% purity. […]

tumors = assay: antitumor activity (in words); design: species or system experimental animals; settings: in vivo
[3] = antimicrobial / antibiotic activity (in words); format: cell-based
E. coli = assay: lysogenic bacterial induction (ILB) assay; format: cell-based
From the text: Analytical high pressure liquid chromatography, Bacillus subtilis zone of inhibition, lysogenic bacterial induction and P388 mouse tumor assays are used throughout the above-described separation processes to monitor relative levels of anandimycin and co-produced substances.

With `C=Cc1cc(OC)c2c(c1)c(=O)oc1c2cc(OC)c2c(O)ccc(C3OC(C(C)O)C(O)C3O)c21` (stereo not shown) [Anandimycin] the “AWC Day 4” value (P-388 leukemia; d.1,5&9, IP, 0.5 mg/kg/inj.) was -0.1 gm, the “Survivors Day 5(30)” value (P-388 leukemia; d.1,5&9, IP, 0.5 mg/kg/inj.) was 6/6 and the MST (P-388 leukemia; d.1,5&9, IP, 0.5 mg/kg/inj.) was 9.0 days. The “Effect MST % T/C” value (P-388 leukemia; d.1,5&9, IP, 0.5 mg/kg/inj.) was 100%, the “AWC Day 4” value (P-388 leukemia; d.1,5&9, IP, 1 mg/kg/inj.) was “+0.6 gm” and the “Survivors Day 5(30)” value (P-388 leukemia; d.1,5&9, IP, 1 mg/kg/inj.) was 6/6. For the same compound, the MST (P-388 leukemia; d.1,5&9, IP, 1 mg/kg/inj.) was 9.0 days, the “Effect MST % T/C” value (P-388 leukemia; d.1,5&9, IP, 1 mg/kg/inj.) was 100% and the “AWC Day 4” value (P-388 leukemia; d.1,5&9, IP, 2 mg/kg/inj.) was “+0.2 gm”. The “Survivors Day 5(30)” value (P-388 leukemia; d.1,5&9, IP, 2 mg/kg/inj.) was 6/6, the MST (P-388 leukemia; d.1,5&9, IP, 2 mg/kg/inj.) was 9.0 days and the “Effect MST % T/C” value (P-388 leukemia; d.1,5&9, IP, 2 mg/kg/inj.) was 100%. For the same compound, the “AWC Day 4” value (P-388 leukemia; d.1,5&9, IP, 4 mg/kg/inj.) was “+0.7 gm”, the “Survivors Day 5(30)” value (P-388 leukemia; d.1,5&9, IP, 4 mg/kg/inj.) was 6/6 and the MST (P-388 leukemia; d.1,5&9, IP, 4 mg/kg/inj.) was 10.5 days. The “Effect MST % T/C” value (P-388 leukemia; d.1,5&9, IP, 4 mg/kg/inj.) was 117%, the “AWC Day 4” value (P-388 leukemia; d.1,5&9, IP, 8 mg/kg/inj.) was “+0.2 gm” and the “Survivors Day 5(30)” value (P-388 leukemia; d.1,5&9, IP, 8 mg/kg/inj.) was 6/6. For the same compound, the MST (P-388 leukemia; d.1,5&9, IP, 8 mg/kg/inj.) was 13.5 days, the “Effect MST % T/C” value (P-388 leukemia; d.1,5&9, IP, 8 mg/kg/inj.) was 150% and the “AWC Day 4” value (P-388 leukemia; d.1,5&9, IP, 16 mg/kg/inj.) was 0 gm. For the same compound, the “Survivors Day 5(30)” value (P-388 leukemia; d.1,5&9, IP, 16 mg/kg/inj.) was 5/5, the MST (P-388 leukemia; d.1,5&9, IP, 16 mg/kg/inj.) was 13.0 days and the “Effect MST % T/C” value (P-388 leukemia; d.1,5&9, IP, 16 mg/kg/inj.) was 144%. For the same compound, the “AWC Day 4” value (P-388 leukemia; d.1, IP, 0.5 mg/kg/inj.) was -0.1 gm, the “Survivors Day 5(30)” value (P-388 leukemia; d.1, IP, 0.5 mg/kg/inj.) was 6/6 and the MST (P-388 leukemia; d.1, IP, 0.5 mg/kg/inj.) was 9.0 days. The “Effect MST % T/C” value (P-388 leukemia; d.1, IP, 0.5 mg/kg/inj.) was 100%, the “AWC Day 4” value (P-388 leukemia; d.1, IP, 1 mg/kg/inj.) was -0.1 gm and the “Survivors Day 5(30)” value (P-388 leukemia; d.1, IP, 1 mg/kg/inj.) was 6/6. For the same compound, the MST (P-388 leukemia; d.1, IP, 1 mg/kg/inj.) was 9.0 days, the “Effect MST % T/C” value (P-388 leukemia; d.1, IP, 1 mg/kg/inj.) was 100% and the “AWC Day 4” value (P-388 leukemia; d.1, IP, 2 mg/kg/inj.) was -0.2 gm. For the same compound, the “Survivors Day 5(30)” value (P-388 leukemia; d.1, IP, 2 mg/kg/inj.) was 5/5, the MST (P-388 leukemia; d.1, IP, 2 mg/kg/inj.) was 10.0 days and the “Effect MST % T/C” value (P-388 leukemia; d.1, IP, 2 mg/kg/inj.) was 111%. The “AWC Day 4” value (P-388 leukemia; d.1, IP, 4 mg/kg/inj.) was -0.9 gm, the “Survivors Day 5(30)” value (P-388 leukemia; d.1, IP, 4 mg/kg/inj.) was 6/6 and the MST (P-388 leukemia; d.1, IP, 4 mg/kg/inj.) was 10.0 days. For the same compound, the “Effect MST % T/C” value (P-388 leukemia; d.1, IP, 4 mg/kg/inj.) was 111%, the “AWC Day 4” value (P-388 leukemia; d.1, IP, 8 mg/kg/inj.) was -0.2 gm and the “Survivors Day 5(30)” value (P-388 leukemia; d.1, IP, 8 mg/kg/inj.) was 6/6. For the same compound, the MST (P-388 leukemia; d.1, IP, 8 mg/kg/inj.) was 11.5 days, the “Effect MST % T/C” value (P-388 leukemia; d.1, IP, 8 mg/kg/inj.) was 128% and the “AWC Day 4” value (P-388 leukemia; d.1, IP, 16 mg/kg/inj.) was -0.6 gm. For the same compound, the “Survivors Day 5(30)” value (P-388 leukemia; d.1, IP, 16 mg/kg/inj.) was 6/6, the MST (P-388 leukemia; d.1, IP, 16 mg/kg/inj.) was 11.0 days and the “Effect MST % T/C” value (P-388 leukemia; d.1, IP, 16 mg/kg/inj.) was 122%. For the same compound, the “AWC Day 4” value (P-388 leukemia; d.1, IP, 32 mg/kg/inj.) was -0.6 gm, the “Survivors Day 5(30)” value (P-388 leukemia; d.1, IP, 32 mg/kg/inj.) was 6/6 and the MST (P-388 leukemia; d.1, IP, 32 mg/kg/inj.) was 13.0 days. The “Effect MST % T/C” value (P-388 leukemia; d.1, IP, 32 mg/kg/inj.) was 144%, the “AWC Day 4” value (P-388 leukemia; d.1, IP, 64 mg/kg/inj.) was -0.3 gm and the “Survivors Day 5(30)” value (P-388 leukemia; d.1, IP, 64 mg/kg/inj.) was 6/6. The MST (P-388 leukemia; d.1, IP, 64 mg/kg/inj.) was 14.5 days, the “Effect MST % T/C” value (P-388 leukemia; d.1, IP, 64 mg/kg/inj.) was 161% and the optimal dose (P-388 leukemia; single dose) was 64 mg/kg. For the same compound, the MIC (Str. pneumoniae 9585) was 0.13 µg/mL (≈ 0.263 µM), the MIC (Pr. vulgaris 21559) was 2 µg/mL (≈ 4.04 µM) and the MIC (Staph. aureus 9587) was 0.06 µg/mL (≈ 0.121 µM). The MIC (K. pneumoniae 15130) was over 63 µg/mL, the MIC (Pr. mirabilis 9900) was over 63 µg/mL and the MIC (E. coli 20341-1) was over 63 µg/mL. It also gave an MIC (Ent. cloacae 9659) of over 63 µg/mL, an MIC (Ps. aeruginosa 9843A) of over 63 µg/mL and an MIC [1] of 0.25 µg/mL (≈ 0.506 µM). For the same compound, the MIC (Str. faecalis 20,588) was 0.016 µg/mL (≈ 0.0324 µM), the MIC (Str. pyogenes 9604) was 0.13 µg/mL (≈ 0.263 µM) and the MIC (Ser. marcescens 20019) was over 63 µg/mL. For the same compound, the MIC (E. coli 15119) was over 63 µg/mL, the “solubility in trituration solvents” value ([2]; acetone, 40:30:30 chloroform:methanol:tetrahydrofuran) was “insoluble” and the “solubility in chromatography solvents” value ([2]; solvents for (preparative) chromatography) was “poor solubility”. For the same compound, the antitumor activity (tumors) was “inhibit the growth of tumors in experimental animals”, the “antimicrobial / antibiotic activity” value [3] was “exhibit antimicrobial activity” and the “toxicity to the host organism (E. coli)” value (E. coli; above 1.6 μg/ml) was “toxic to the host organism”. The ILB activity (E. coli; maximum concentration of 1.6 μg/ml) was “completely devoid of ILB activity”.
